Results on 1 molecule are retold here after publication PMC7379272, “Functional analysis of UGT201D3 associated with abamectin resistance in Tetranychus cinnabarinus (Boisduval)” (Insect Science, 2018).

The target of this test is T1, (UniProt A0A221C6W1).
T1 construct: gene UGT201D3; recombinant pET-28a-UGT201D3q, 15 N-terminal hydrophobic amino acids removed, expressed in E. coli BL21 (DE3), Ni-NTA purified
Description: inhibition of α-naphthol glycosylation by the purified recombinant enzyme, Dixon plot (IC50 […]); HPLC depletion of abamectin. Type of test: biochemical, Tetranychus cinnabarinus.

T1 sequence (A0A221C6W1 16-460 limits assumed): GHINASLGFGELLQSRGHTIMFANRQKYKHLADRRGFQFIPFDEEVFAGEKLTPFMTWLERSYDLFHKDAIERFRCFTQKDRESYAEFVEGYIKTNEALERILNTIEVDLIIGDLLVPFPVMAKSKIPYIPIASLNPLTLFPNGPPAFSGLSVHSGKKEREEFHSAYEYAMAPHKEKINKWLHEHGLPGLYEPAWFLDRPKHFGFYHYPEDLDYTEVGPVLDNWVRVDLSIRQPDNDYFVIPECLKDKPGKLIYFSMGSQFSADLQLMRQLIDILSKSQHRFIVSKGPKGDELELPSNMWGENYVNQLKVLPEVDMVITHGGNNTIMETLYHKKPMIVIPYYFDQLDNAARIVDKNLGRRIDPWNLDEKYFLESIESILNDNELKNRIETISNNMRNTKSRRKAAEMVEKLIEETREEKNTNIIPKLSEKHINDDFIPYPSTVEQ

As usually defined, the Ki is the equilibrium dissociation constant of an inhibitor or competing ligand from its target. In the case of `CC[C@H](C)[C@H]1O[C@]2(C=C[C@@H]1C)C[C@@H]1C[C@@H](C/C=C(\C)[C@@H](O[C@H]3C[C@H](OC)[C@@H](O[C@H]4C[C@H](OC)[C@@H](O)[C@H](C)O4)[C@H](C)O3)[C@@H](C)/C=C/C=C3\CO[C@@H]4[C@H](O)C(C)=C[C@@H](C(=O)O1)[C@]34O)O2.CO[C@H]1C[C@H](O[C@H]2[C@H](C)O[C@@H](O[C@@H]3/C(C)=C/C[C@@H]4C[C@@H](C[C@]5(C=C[C@H](C)[C@@H](C(C)C)O5)O4)OC(=O)[C@@H]4C=C(C)[C@@H](O)[C@H]5OC/C(=C\C=C\[C@@H]3C)[C@]54O)C[C@@H]2OC)O[C@@H](C)[C@@H]1O` [abamectin], the Ki was 9.9 ± 6.2 µM.
